# Reference: ChEMBL document CHEMBL1201862, “PubChem BioAssay data set” (2004)
# The source made the active and inactive calls.
# Key:
# [1] = cytotoxicity in HEK-293T cells, dose response, cytotoxicity control for BCR NF-kB inhibitor project, luminescence, B-cell screen hits (AID 489021); assay type: functional, cell-based;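 note: HEK-293T cells carrying an NF-kB luciferase reporter; cells exposed to compound for about 14 hours before viability readout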
# HEK293 [2] = test: NOD2 signaling inhibitors in MDP-stimulated cells, cell-based, uHTS, luminescence (AID 2001); assay type: functional; settings: Homo sapiens
# HEK293 [3] = test: NOD1 signaling inhibitors, primary screen, cell-based, luminescence, uHTS (AID 1578); assay type: functional; settings: Homo sapiens
# [4] = C. albicans growth with fluconazole, confirmation, fluorescence, retest (AID 2467); assay type: functional, cell-based
# HEK293 [5] = test: cells; assay type: functional, cell-based; settings: Homo sapiens
# [6] = NIH-3T3 fibroblast cytotoxicity, dose response, cytotoxicity control, cell-based, fluorescence, Alamar Blue, secondary assay (AID 2327); assay type: functional;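 note: NIH-3T3 mouse fibroblasts cultured with fluconazole at 8 µg/mL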
# HEK293 [7] = test: cells; assay type: functional, cell-based; settings: Homo sapiens; remark: listed apart in the source
# [8] = Luminescence Cell-Based Dose Retest to Confirm Inhibitors of Cancer Stem Cells. [Related pubchem assays (depositor defined):AID2717, AID2721]; assay type: functional, Homo sapiens; settings: Homo sapiens
# Vero = test: cells; assay type: functional; settings: Chlorocebus sabaeus
# [9] = biological target: T1, DNA repair protein RAD52 homolog (Homo sapiens, UniProt P43351); assay type: functional, biochemical
# T1 sequence (P43351 whole entry): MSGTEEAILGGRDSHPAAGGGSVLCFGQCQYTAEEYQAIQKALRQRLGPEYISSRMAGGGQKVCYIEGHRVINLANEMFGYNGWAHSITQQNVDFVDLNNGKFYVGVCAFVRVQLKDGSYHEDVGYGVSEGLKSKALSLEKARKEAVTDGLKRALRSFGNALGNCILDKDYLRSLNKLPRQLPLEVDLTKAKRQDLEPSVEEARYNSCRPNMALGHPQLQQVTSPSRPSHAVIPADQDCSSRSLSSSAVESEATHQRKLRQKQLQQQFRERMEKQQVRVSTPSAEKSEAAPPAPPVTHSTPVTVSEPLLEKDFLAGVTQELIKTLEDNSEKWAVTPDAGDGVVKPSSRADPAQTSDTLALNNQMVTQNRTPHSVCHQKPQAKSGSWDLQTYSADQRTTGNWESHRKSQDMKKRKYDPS
# [10] = biological target: T2, Ubiquitin-conjugating enzyme E2 N (Homo sapiens, UniProt P61088); assay type: functional;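 note: Dose-response confirmation in a TR-FRET assay detecting UBC13-driven polyubiquitin chain formation, inhibition measured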
# T2 sequence (P61088 whole entry): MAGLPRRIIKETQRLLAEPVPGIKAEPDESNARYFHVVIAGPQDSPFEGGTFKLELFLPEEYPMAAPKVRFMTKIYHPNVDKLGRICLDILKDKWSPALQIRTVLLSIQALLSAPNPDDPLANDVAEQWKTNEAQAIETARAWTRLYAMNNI
# [11] = microbe, parasite or virus in culture; assay type: functional; settings: Mycobacterium tuberculosis
# [12] = biological target: Voltage-dependent T-type calcium channel subunit alpha-1H (Homo sapiens, UniProt O95180); assay type: functional;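 note: channel activity triggered by adding a high calcium stimulation buffer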
# Voltage-dependent T-type calcium channel subunit alpha-1H, sequence (O95180 whole entry): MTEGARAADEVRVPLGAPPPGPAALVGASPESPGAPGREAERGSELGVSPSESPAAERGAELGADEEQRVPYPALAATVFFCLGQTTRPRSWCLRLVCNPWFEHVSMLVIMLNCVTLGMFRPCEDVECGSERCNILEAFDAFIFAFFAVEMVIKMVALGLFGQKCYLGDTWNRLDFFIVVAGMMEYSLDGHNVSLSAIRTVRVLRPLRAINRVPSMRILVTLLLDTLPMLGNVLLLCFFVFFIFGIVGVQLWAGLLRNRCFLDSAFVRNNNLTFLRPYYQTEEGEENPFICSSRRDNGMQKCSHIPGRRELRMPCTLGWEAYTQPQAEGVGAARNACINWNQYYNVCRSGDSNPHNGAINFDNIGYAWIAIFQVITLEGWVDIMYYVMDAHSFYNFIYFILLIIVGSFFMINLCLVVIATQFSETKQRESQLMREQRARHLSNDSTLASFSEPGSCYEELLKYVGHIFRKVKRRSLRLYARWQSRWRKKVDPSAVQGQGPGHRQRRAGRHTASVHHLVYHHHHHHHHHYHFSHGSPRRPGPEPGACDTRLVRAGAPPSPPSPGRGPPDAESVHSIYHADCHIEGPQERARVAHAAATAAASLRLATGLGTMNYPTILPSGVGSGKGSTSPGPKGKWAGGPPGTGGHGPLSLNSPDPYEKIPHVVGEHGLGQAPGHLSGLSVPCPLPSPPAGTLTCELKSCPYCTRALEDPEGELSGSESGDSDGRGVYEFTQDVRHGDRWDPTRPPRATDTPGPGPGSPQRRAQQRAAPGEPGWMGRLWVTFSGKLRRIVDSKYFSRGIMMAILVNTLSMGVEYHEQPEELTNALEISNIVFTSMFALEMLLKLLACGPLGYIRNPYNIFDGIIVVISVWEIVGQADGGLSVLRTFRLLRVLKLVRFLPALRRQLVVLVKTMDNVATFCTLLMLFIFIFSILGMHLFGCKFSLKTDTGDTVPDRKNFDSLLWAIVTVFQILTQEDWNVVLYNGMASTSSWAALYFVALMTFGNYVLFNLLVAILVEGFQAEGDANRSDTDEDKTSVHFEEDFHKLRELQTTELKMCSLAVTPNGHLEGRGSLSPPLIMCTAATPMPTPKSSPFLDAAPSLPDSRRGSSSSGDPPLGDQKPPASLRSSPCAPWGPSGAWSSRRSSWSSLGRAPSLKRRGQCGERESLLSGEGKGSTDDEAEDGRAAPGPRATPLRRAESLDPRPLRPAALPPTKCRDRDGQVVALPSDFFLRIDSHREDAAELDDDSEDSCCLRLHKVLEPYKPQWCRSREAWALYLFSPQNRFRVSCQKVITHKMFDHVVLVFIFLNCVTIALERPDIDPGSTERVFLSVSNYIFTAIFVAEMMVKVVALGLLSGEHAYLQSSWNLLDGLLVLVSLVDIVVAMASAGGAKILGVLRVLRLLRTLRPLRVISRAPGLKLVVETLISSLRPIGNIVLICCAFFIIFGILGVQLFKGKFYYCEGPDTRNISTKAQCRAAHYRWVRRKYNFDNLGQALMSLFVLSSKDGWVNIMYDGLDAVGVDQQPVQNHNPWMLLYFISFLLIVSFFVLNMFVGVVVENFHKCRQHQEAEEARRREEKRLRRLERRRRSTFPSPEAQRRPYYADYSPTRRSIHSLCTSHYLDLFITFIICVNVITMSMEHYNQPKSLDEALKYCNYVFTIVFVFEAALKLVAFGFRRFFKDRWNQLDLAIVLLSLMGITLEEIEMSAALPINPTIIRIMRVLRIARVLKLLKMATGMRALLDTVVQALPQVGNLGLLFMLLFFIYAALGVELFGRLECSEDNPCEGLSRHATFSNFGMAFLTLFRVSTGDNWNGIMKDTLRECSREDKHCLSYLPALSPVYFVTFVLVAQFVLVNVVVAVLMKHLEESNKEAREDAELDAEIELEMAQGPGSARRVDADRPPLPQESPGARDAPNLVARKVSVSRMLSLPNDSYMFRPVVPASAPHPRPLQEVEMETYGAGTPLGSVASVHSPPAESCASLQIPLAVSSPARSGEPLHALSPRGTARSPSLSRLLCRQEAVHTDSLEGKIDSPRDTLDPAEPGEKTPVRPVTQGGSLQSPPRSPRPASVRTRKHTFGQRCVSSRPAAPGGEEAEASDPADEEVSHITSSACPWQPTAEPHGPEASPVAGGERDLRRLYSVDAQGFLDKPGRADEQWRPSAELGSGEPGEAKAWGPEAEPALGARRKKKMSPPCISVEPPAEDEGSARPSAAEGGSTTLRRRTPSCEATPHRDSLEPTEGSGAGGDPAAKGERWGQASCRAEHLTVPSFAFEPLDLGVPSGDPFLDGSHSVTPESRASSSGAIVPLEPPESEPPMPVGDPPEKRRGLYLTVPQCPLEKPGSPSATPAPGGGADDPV
# [13] = biological target: T3, Rac GTPase-activating protein 1 (Homo sapiens, UniProt Q9H0H5); test: MgcRacGAP GTPase-activating activity inhibitors, confirmation, biochemical, ADP Hunter fluorescence, primary and confirmatory (AID 624330); assay type: functional
# T3 sequence (Q9H0H5 whole entry): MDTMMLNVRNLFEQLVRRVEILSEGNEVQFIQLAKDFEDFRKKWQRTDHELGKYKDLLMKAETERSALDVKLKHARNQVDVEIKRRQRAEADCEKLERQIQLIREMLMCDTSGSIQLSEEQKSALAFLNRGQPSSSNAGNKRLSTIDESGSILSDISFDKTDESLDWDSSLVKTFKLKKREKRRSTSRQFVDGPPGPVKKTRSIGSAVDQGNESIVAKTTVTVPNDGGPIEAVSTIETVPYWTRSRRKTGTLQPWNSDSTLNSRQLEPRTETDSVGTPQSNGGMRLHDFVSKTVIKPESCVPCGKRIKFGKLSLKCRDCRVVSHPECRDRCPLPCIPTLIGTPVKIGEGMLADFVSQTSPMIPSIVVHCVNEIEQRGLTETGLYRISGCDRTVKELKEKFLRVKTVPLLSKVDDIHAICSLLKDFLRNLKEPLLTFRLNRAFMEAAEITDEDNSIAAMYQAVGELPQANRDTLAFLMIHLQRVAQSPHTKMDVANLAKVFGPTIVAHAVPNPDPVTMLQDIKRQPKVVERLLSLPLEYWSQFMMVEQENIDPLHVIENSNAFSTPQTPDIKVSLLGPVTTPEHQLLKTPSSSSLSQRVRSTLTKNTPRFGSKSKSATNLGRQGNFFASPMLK
# [14] = biological target: Induced myeloid leukemia cell differentiation protein Mcl-1 (Homo sapiens, UniProt Q07820); assay type: functional
# Induced myeloid leukemia cell differentiation protein Mcl-1, sequence (Q07820 whole entry, the tested form may be a part): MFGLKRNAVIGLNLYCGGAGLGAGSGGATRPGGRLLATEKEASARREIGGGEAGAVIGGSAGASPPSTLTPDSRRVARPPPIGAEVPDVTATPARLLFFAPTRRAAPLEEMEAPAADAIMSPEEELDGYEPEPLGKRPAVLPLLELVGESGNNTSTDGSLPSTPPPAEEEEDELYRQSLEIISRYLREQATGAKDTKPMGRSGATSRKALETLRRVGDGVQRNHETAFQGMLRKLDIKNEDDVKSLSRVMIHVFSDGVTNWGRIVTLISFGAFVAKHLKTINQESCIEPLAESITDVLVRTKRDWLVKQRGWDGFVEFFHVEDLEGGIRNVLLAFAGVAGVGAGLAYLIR
# [15] = inhibitors of HIV Env-driven cell fusion, dose response, cherry-pick (AID 652057); assay type: functional, cell-based
# [16] = inhibitors of intracellular T. cruzi replication, confirmation, NIH3T3 host cells, beta-gal luminescence (AID 2044); assay type: functional, cell-based;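 note: intracellular parasites grown in NIH/3T3 mouse fibroblasts as host cells; luminescent beta-galactosidase reporter signal from transgenic T. cruzi replicating inside host cells; inhibitors lower the luminescence signal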
# [17] = cytotoxicity toward NIH3T3 fibroblasts, dose response, counter-screen, cell-based, ATP luminescence, mouse fibroblasts (AID 2010); assay type: functional; settings: NIH3T3;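 note: cells exposed to compound for about 90 hours before reading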
# Protein RecA = biological target: T4, Protein RecA (Mycobacterium tuberculosis, UniProt P9WHJ3); test: Fluorescence Cell-Free Homogeneous Dose Retest to Identify Inhibitors of RecA-Intein Splicing Activity. [Related pubchem assays (depositor defined):AID2097, AID2223, AID489010, AID492950]; assay type: functional
# T4 sequence (P9WHJ3 whole entry): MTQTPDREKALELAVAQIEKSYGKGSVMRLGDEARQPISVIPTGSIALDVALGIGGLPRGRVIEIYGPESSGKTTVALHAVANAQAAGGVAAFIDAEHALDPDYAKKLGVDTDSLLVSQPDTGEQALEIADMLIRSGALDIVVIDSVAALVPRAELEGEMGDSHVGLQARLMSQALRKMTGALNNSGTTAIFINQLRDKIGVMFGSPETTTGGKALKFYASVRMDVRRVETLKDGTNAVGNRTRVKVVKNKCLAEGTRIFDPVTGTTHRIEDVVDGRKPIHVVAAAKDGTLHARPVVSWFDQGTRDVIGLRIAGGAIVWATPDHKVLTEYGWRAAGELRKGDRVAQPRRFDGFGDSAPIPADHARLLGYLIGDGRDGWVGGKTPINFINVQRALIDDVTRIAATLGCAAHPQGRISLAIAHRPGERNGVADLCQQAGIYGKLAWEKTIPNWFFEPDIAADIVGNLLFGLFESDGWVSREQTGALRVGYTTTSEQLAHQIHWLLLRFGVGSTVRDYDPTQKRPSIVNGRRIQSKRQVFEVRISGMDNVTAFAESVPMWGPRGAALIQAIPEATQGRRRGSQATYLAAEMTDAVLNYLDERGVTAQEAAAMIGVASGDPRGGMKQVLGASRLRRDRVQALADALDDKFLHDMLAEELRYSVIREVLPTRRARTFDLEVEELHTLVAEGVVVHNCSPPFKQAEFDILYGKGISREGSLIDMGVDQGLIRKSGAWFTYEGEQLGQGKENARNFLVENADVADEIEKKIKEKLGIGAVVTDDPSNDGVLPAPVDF
# [18] = biological target: T5, Replicative DNA helicase DnaB (Mycobacterium tuberculosis, UniProt P9WMR3); test: DnaB intein splicing inhibitors, dose response, biochemical, cell-free fluorescence (AID 449749); assay type: functional
# T5 sequence (P9WMR3 whole entry): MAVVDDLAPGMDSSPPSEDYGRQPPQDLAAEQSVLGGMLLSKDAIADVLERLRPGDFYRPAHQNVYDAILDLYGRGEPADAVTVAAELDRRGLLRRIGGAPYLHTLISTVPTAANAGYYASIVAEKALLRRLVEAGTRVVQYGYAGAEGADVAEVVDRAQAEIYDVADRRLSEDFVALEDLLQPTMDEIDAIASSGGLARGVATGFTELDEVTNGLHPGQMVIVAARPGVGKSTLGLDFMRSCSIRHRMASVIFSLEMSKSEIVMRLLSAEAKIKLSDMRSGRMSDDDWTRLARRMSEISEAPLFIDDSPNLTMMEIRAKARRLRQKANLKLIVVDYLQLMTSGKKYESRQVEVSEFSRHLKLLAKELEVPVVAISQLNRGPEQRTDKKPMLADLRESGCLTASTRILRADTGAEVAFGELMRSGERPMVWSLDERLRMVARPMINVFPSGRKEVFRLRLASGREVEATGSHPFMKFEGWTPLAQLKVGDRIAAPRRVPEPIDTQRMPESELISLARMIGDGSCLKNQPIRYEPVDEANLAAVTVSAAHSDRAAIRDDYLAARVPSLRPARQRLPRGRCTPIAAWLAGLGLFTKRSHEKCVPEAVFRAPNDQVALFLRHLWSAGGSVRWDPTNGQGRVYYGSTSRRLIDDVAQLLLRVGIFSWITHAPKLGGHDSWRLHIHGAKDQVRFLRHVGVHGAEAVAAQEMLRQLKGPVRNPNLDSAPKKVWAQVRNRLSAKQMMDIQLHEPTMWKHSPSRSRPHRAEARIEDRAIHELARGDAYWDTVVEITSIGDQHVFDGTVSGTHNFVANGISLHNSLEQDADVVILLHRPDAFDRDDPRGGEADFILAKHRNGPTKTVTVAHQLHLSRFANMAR
# INS1 = test: beta cell apoptosis inhibitors, cytokine rescue, dose response, luminescence, retest (AID 449756); assay type: functional, cell-based; settings: Rattus norvegicus;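 note: cell death triggered by IL-1 beta plus TNF-alpha plus IFN-gamma mixture; protective hits raise ATP signal compared with cytokine alone wells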
# [19] = inhibitors of firefly luciferase expression or activity, dose response, H4 neuroglioma cells, luminescence (AID 1990); assay type: functional, cell-based
# [20] = Luminescence Cell-Based Dose Response HTS to Identify Inhibitors of 5'UTR Stem-Loop Driven Prion Protein mRNA Translation in H4 Neuroglioblastoma Cells. [Related pubchem assays: 1827 (Project Summary), 1813 (Primary HTS)]; assay type: functional
# [21] = inhibitors of SNCA 5'UTR-driven reporter translation, confirmation, H4 neuroglioma cells, luminescence (AID 1988); assay type: functional, cell-based
compound,measurement,setting,value
COc1ccccc1/C=C1\SC(=S)N(CCC(=O)Nc2nnc(C)s2)C1=O,IC50,[1],> 80 µM (inactive)
CC(C)(C)NC(=S)N/N=C/c1cc(Br)c(O)c(Br)c1,IC50,HEK293 [2],16.9 µM (inactive)
same,EC50,HEK293 [3],5.75 µM (active)
same,EC50,[4],2.86 µM (active)
same,IC50,HEK293 [5],> 20 µM (inactive)
same,EC50,[6],32.2 µM (active)
same,IC50,HEK293 [7],> 20 µM (inactive)
CC(C)C[C@H](NC(=O)c1[nH]cnc1C(=O)NC(c1ccccc1)c1ccccc1)C(=O)OC(C)(C)C,AC50,[8],3.44 µM (active)
same,CC50,Vero,19.3 µM (active)
CCN(CC)CCNc1ncnc2c1sc1nc(N3CCOCC3)c3c(c12)CCCC3,AC50,[9],4.88 µM (active)
same,IC50,[10],> 20 µM (inactive)
FC(F)(F)c1cc(CO[C@@H]2CCCN[C@@H]2c2ccccc2)cc(C(F)(F)F)c1,CC50,[11],24.2 µM (active)
same,IC50,[10],> 20 µM (inactive)
O=C(Nc1nc2ccccc2s1)C1CC(=O)N(c2ccccc2)C1 (stereo not given),EC50,[12],8.11 µM (active)
c1ccc(C[C@H]2CN=C(Nc3ccccc3)N2CCCC2CCCCC2)cc1,IC50,[10],> 20 µM (inactive)
CN1CCN(c2ccc(N)c(N3CCN(C)CC3)c2)CC1,IC50,[13],33.3 µM (active)
same,IC50,[10],> 20 µM (inactive)
C/C(=N\NC(=O)c1nnn(-c2nonc2N)c1CN(C)c1ccccc1)c1ccccn1,CC50,[11],2.43 µM (active)
COc1ccc(C(=O)Nc2ccccc2C(=O)NCc2ccco2)cc1OC,IC50,[1],> 80 µM (inactive)
CN(C)c1ccc(C(c2nnnn2CCOC(=O)Nc2ccc(Cl)cc2)N2CCOCC2)cc1 (stereo not given),EC50,[12],9.17 µM (active)
O=[N+]([O-])c1ccc2c(c1)=[N+]([O-])C1(CCCCC1)[N+]=2[O-],IC50,[14],4.85 µM (active)
COC(=O)/C=C\C(C#N)(C#N)N=Cc1ccc(OC)cc1,CC50,Vero,> 25 µM (active)
CCC(=O)N(C)C[C@H]1Oc2cc(/C=C/c3ccccc3)ccc2S(=O)(=O)N([C@@H](C)CO)C[C@H]1C,AC50,[15],20.7 µM (active)
Cc1c(C(=O)NCC2COc3ccccc3O2)oc2ccc(S(=O)(=O)N(C)C3CCCCC3)cc12 (stereo not given),EC50,[12],5.64 µM (active)
same,EC50,[16],1.89 µM (active)
same,EC50,[17],> 60 µM (not active)
CC(C)Cn1c(SCC(=O)c2ccc(Cl)s2)nnc1-c1ccco1,EC50,[12],10.6 µM (active)
same,CC50,Vero,> 25 µM (active)
CC1Cc2ccccc2N1S(=O)(=O)c1cnc(Cl)c(Br)c1 (stereo not given),IC50,[1],69.3 µM (inactive)
Cc1ccc(-c2nnn(CC(=O)N3CCCc4ccccc43)n2)cc1,EC50,[12],3.43 µM (active)
COc1ccccc1OCC(=O)N(Cc1nc(-c2ccccc2)no1)C1CCCCC1,EC50,[12],5.55 µM (active)
C=CCOc1ccc(C2C(C#N)=C(N)N(Nc3ccccc3)C3=C2C(=O)CC(C)(C)C3)cc1OC (stereo not given),CC50,[11],35.8 µM (active)
CCN(CCN(C)C)C(=O)c1ccc2c(c1NCCO)C(=O)c1ccccc1C2=O,AC50,[9],6.06 µM (active)
same,EC50,Protein RecA,< 0.018 µM (active)
same,AC50,[18],0.0471 µM (active)
CC/C(NCc1ccc2c(c1)OCO2)=C1/C(=O)NC(=O)N(C2CCCCC2)C1=O,EC50,[12],5.15 µM (active)
Cc1ccc(-c2cn3c([n+]2-c2ccccc2)SCC3)cc1,EC50,[16],0.282 µM (active)
same,AC50,INS1,3.11 µM (active)
same,EC50,[17],> 60 µM (not active)
same,IC50,[1],> 80 µM (inactive)
CNC(=O)c1ccccc1NC(=O)c1cccc(S(=O)(=O)N2CCC(C)CC2)c1,IC50,[10],> 20 µM (inactive)
CCN(CC)CCOCCOc1ccc(Cl)c2ccccc12,CC50,Vero,> 25 µM (active)
COc1ccc(NC(=O)c2nnn(Cc3cccc(F)c3)c2N)c(OC)c1,IC50,[1],> 80 µM (inactive)
COc1ccccc1NC(=O)CNC(=O)CC12CC3CC(CC(C3)C1)C2,IC50,[10],> 20 µM (inactive)
CN(C)CCCOc1ccc(-c2cc3nc(NCc4cccnc4)n(C)c(=O)c3s2)cn1,AC50,[9],11.2 µM (active)
CSC1CCCCC1(O)CSc1nc2c(cc1C#N)CCCC2 (stereo not given),EC50,[19],14.1 µM (active)
same,EC50,[20],22.3 µM (active)
same,EC50,[21],> 120 µM (not active)
same,IC50,[1],> 80 µM (inactive)
CSc1ccc(C(=O)/C=C/c2ccc(N)cc2)cc1,CC50,Vero,18.7 µM (active)
